The subject of this assay is BDF1 mice, colon carcinoma 38 sc, T/C %. The experiment in a line: NCI In Vivo Anticancer Drug Screen. Data for tumor model Colon Carcinoma 38 (subcutaneous) in B6D2F1 (BDF1) mice. The procedure, abridged:
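Transplantable tumor in mice; compound-treated vs vehicle-dosed controls. Measured survival or tumor size; value = T ÷ C.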

[1] abbreviates: endpoint: median tumor weight (est.), dose: 100.0 mg/kg/injection, schedule: Q07DX002 (ip), vehicle: saline with Tween-80, higher = larger tumour.
Where [2] appears, read: endpoint: median tumor weight (est.), dose: 50.0 mg/kg/injection, schedule: Q07DX002 (ip), vehicle: Klucel (hydroxypropylcellulose) (HPC), higher = larger tumour.
Setting [3] is: endpoint: median tumor weight (est.), dose: 200.0 mg/kg/injection, schedule: Q07DX002 (ip), vehicle: Klucel (hydroxypropylcellulose) (HPC), higher = larger tumour.
[4] abbreviates: endpoint: median tumor weight (est.), dose: 12.5 mg/kg/injection, schedule: Q07DX002 (ip), vehicle: saline with Tween-80, higher = larger tumour.
Where [5] appears, read: endpoint: median tumor weight (est.), dose: 25.0 mg/kg/injection, schedule: Q07DX002 (ip), vehicle: saline with Tween-80, higher = larger tumour.
[6] abbreviates: endpoint: median tumor weight (est.), dose: 50.0 mg/kg/injection, schedule: Q07DX002 (ip), vehicle: saline with Tween-80, higher = larger tumour.
[7] abbreviates: endpoint: median tumor weight (est.), dose: 200.0 mg/kg/injection, schedule: Q07DX002 (ip), vehicle: saline with Tween-80, higher = larger tumour.
Setting [8] is: endpoint: median tumor weight (est.), dose: 400.0 mg/kg/injection, schedule: Q07DX002 (ip), vehicle: saline with Tween-80, higher = larger tumour.
[9] abbreviates: endpoint: median tumor weight (est.), dose: 25.0 mg/kg/injection, schedule: Q07DX002 (ip), vehicle: saline, higher = larger tumour.
Where [10] appears, read: endpoint: median tumor weight (est.), dose: 50.0 mg/kg/injection, schedule: Q07DX002 (ip), vehicle: saline, higher = larger tumour.
Where [11] appears, read: endpoint: median tumor weight (est.), dose: 100.0 mg/kg/injection, schedule: Q07DX002 (ip), vehicle: saline, higher = larger tumour.
Setting [12] is: endpoint: median tumor weight (est.), dose: 200.0 mg/kg/injection, schedule: Q07DX002 (ip), vehicle: saline, higher = larger tumour.
[13] abbreviates: endpoint: median tumor weight (est.), dose: 400.0 mg/kg/injection, schedule: Q07DX002 (ip), vehicle: saline, higher = larger tumour.
Where [14] appears, read: endpoint: median tumor weight (est.), dose: 100.0 mg/kg/injection, schedule: Q07DX002 (ip), vehicle: Klucel (hydroxypropylcellulose) (HPC), higher = larger tumour.
[15] abbreviates: endpoint: median tumor weight (est.), dose: 3.0 mg/kg/injection, schedule: Q07DX002 (ip), vehicle: Klucel (hydroxypropylcellulose) (HPC), higher = larger tumour.
Setting [16] is: endpoint: median tumor weight (est.), dose: 800.0 mg/kg/injection, schedule: Q07DX002 (ip), vehicle: saline, higher = larger tumour.

Structures are written as SMILES. Values joined by “and” are separate entries in the source; they are usually repeats but may differ in a detail not shown here. Identical values can stand only once. Results filed as inconclusive are left out.

With `C=C1C(=O)OCC1C(=O)O` (stereo unspecified), the T/C (endpoint: median tumor weight (est.), dose: 4.0 mg/kg/injection, schedule: Q07DX002 (ip), vehicle: saline, higher = larger tumour) is 290 % of control; the T/C (endpoint: median tumor weight (est.), dose: 8.0 mg/kg/injection, schedule: Q07DX002 (ip), vehicle: saline, higher = larger tumour) was 281 % of control; the T/C (endpoint: median tumor weight (est.), dose: 16.0 mg/kg/injection, schedule: Q07DX002 (ip), vehicle: saline, higher = larger tumour) is 297 % of control; the T/C (endpoint: median tumor weight (est.), dose: 32.0 mg/kg/injection, schedule: Q07DX002 (ip), vehicle: saline, higher = larger tumour) was 278 % of control; the T/C (endpoint: median tumor weight (est.), dose: 64.0 mg/kg/injection, schedule: Q07DX002 (ip), vehicle: saline, higher = larger tumour) was 344 % of control.
For `S=C=NCCc1ccccc1`, the T/C under setting [1] is 82 % of control and 105 % of control.
`CSc1cc(C)[o+]c(C)c1`: the T/C (endpoint: median tumor weight (est.), dose: 25.0 mg/kg/injection, schedule: Q07DX002 (ip), vehicle: Klucel (hydroxypropylcellulose) (HPC), higher = larger tumour) was 117 % of control; the T/C under setting [2] is 184 % of control; the T/C under setting [3] was 108 % of control.
For the compound `COCCCNC1=C(C#N)C(=O)NC(c2cccc([N+](=O)[O-])c2)S1` (stereo unspecified), the T/C by setting is: under setting [4], 97 % of control; under setting [5], 95 % of control; under setting [6], 108 % of control.
With `CN=S(=O)(OCCCCCOS(=O)(=NC)c1ccc(C)cc1)c1ccc(C)cc1` (stereo unspecified), the T/C was 71 % of control and 94 % of control under setting [6]; 65 % of control and 89 % of control under setting [1]; 96 % of control under setting [7]; 61 % of control under setting [8].
`COc1cc(C(=O)N/N=C/c2cccc([N+](=O)[O-])c2)cc(OC)c1OC`: the T/C is 93 % of control under setting [5], 124 % of control under setting [6], 107 % of control under setting [1] and 101 % of control under setting [7].
For the compound `Cc1ccccc1SSc1ccccc1C`, the T/C is 92 % of control (endpoint: median tumor weight (est.), dose: 25.0 mg/kg/injection, schedule: Q07DX003 (ip), vehicle: other, higher = larger tumour); 96 % of control (endpoint: median tumor weight (est.), dose: 25.0 mg/kg/injection, schedule: Q07DX003 (ip), vehicle: saline with Tween-80, higher = larger tumour); 123 % of control (endpoint: median tumor weight (est.), dose: 50.0 mg/kg/injection, schedule: Q07DX003 (ip), vehicle: other, higher = larger tumour); 88 % of control (endpoint: median tumor weight (est.), dose: 50.0 mg/kg/injection, schedule: Q07DX003 (ip), vehicle: saline with Tween-80, higher = larger tumour); 89 % of control (endpoint: median tumor weight (est.), dose: 100.0 mg/kg/injection, schedule: Q07DX003 (ip), vehicle: other, higher = larger tumour); 62 % of control (endpoint: median tumor weight (est.), dose: 100.0 mg/kg/injection, schedule: Q07DX003 (ip), vehicle: saline with Tween-80, higher = larger tumour). The T/C is 84 % of control (endpoint: median tumor weight (est.), dose: 200.0 mg/kg/injection, schedule: Q07DX003 (ip), vehicle: other, higher = larger tumour) and 74 % of control (endpoint: median tumor weight (est.), dose: 200.0 mg/kg/injection, schedule: Q07DX003 (ip), vehicle: saline with Tween-80, higher = larger tumour).
In the case of `OCCCN1CCCCC1CO` (stereo unspecified), the T/C reads like this: under setting [9], 91 % of control; under setting [10], 110 % of control; under setting [11], 108 % of control; under setting [12], 99 % of control; under setting [13], 98 % of control.
As for `O=c1ccc2ccccc2o1`, the T/C was 115 % of control under setting [2], 118 % of control under setting [14] and 118 % of control under setting [3].
In the case of `CC(=O)OCC1OC(OC(C)=O)C(NC(=O)N(CCCl)N=O)C(OC(C)=O)C1OC(C)=O` (stereo unspecified), the T/C is, setting by setting: (endpoint: median tumor weight (est.), dose: 0.75 mg/kg/injection, schedule: Q07DX002 (ip), vehicle: Klucel (hydroxypropylcellulose) (HPC), higher = larger tumour) 100 % of control; (endpoint: median tumor weight (est.), dose: 1.5 mg/kg/injection, schedule: Q07DX002 (ip), vehicle: Klucel (hydroxypropylcellulose) (HPC), higher = larger tumour) 82 % of control and 96 % of control; under setting [15], 64 % of control.
Regarding `O=C(O)Cc1cccc2c(=O)cc(-c3ccco3)oc12`, the T/C by setting is: under setting [10], 74 % of control; under setting [11], 53 % of control.
Regarding `C=C(C)[C@]12CC(C)C34OC(/C=C\C=C\CCCCCCCCC)(O[C@@H]1[C@@H]3[C@@H]1O[C@]1(CO)[C@@H](O)[C@]1(O)C(=O)C(C)=C[C@@H]41)O2` (stereo partly specified), the T/C (endpoint: median tumor weight (est.), dose: 0.18 mg/kg/injection, schedule: Q07DX002 (ip), vehicle: distilled water + alcohol, higher = larger tumour) was 109 % of control; the T/C (endpoint: median tumor weight (est.), dose: 0.37 mg/kg/injection, schedule: Q07DX002 (ip), vehicle: distilled water + alcohol, higher = larger tumour) was 76 % of control; the T/C (endpoint: median tumor weight (est.), dose: 0.75 mg/kg/injection, schedule: Q07DX002 (ip), vehicle: distilled water + alcohol, higher = larger tumour) is 105 % of control; the T/C (endpoint: median tumor weight (est.), dose: 1.5 mg/kg/injection, schedule: Q07DX002 (ip), vehicle: distilled water + alcohol, higher = larger tumour) is 75 % of control.
On to `C=C1C(C2(C)C(OC(C)=O)CC(=O)OC(C)(COC(C)=O)C2CC(=O)OC)C(OC=O)C(OC(=O)C(O)C(C)CC)C2(C)C(c3ccoc3)CC(=O)C12O` (stereo unspecified), for which the T/C under setting [15] is 64 % of control; the T/C (endpoint: median tumor weight (est.), dose: 6.0 mg/kg/injection, schedule: Q07DX002 (ip), vehicle: Klucel (hydroxypropylcellulose) (HPC), higher = larger tumour) is 68 % of control; the T/C (endpoint: median tumor weight (est.), dose: 12.0 mg/kg/injection, schedule: Q07DX002 (ip), vehicle: Klucel (hydroxypropylcellulose) (HPC), higher = larger tumour) is 77 % of control; the T/C (endpoint: median tumor weight (est.), dose: 24.0 mg/kg/injection, schedule: Q07DX002 (ip), vehicle: Klucel (hydroxypropylcellulose) (HPC), higher = larger tumour) is 90 % of control; the T/C (endpoint: median tumor weight (est.), dose: 48.0 mg/kg/injection, schedule: Q07DX002 (ip), vehicle: Klucel (hydroxypropylcellulose) (HPC), higher = larger tumour) was 61 % of control.
`CS(=O)(=O)Nc1ccc(C(=O)CCN2CCCCCC2)cc1`: the T/C under setting [6] was 96 % of control, the T/C under setting [1] is 86 % of control and the T/C under setting [7] is 95 % of control.
For `O=C(Cc1cccc2c(=O)cc(-c3ccccc3)oc12)OCCN1CCOCC1`, the T/C reads like this: under setting [14], 115 % of control; under setting [3], 92 % of control.
On to `OCC12COCN1COC2`, for which the T/C was 82 % of control and 86 % of control under setting [9]; 85 % of control and 97 % of control under setting [13]; 91 % of control under setting [16].
As for `O=Cc1ccc(O)c(O)c1`, the T/C reads like this: under setting [9], 65 % of control; under setting [6], 117 % of control; under setting [10], 85 % of control; under setting [1], 91 % of control; under setting [11], 63 % of control; under setting [7], 108 % of control. In addition, the T/C runs as follows: under setting [12], 97 % of control; under setting [8], 113 % of control; under setting [16], 88 % of control.
For `COc1cc(C[C@H]2c3cc(OC)c(OC)cc3CCN2C)c(Oc2cc3c(cc2OC)-c2c(OC)c(OC)cc4c2[C@H](C3)N(C)CC4)cc1OC`, the T/C was 59 % of control (endpoint: median tumor weight (est.), dose: 25.0 mg/kg/injection, schedule: Q01DX005 (ip), vehicle: saline, higher = larger tumour); 116 % of control (endpoint: median tumor weight (est.), dose: 25.0 mg/kg/injection, schedule: Q04DX003 (ip), vehicle: saline, higher = larger tumour); 198 % of control (endpoint: median tumor weight (est.), dose: 50.0 mg/kg/injection, schedule: Q01DX005 (ip), vehicle: saline, higher = larger tumour); 60 % of control (endpoint: median tumor weight (est.), dose: 50.0 mg/kg/injection, schedule: Q04DX003 (ip), vehicle: saline, higher = larger tumour); 64 % of control (endpoint: median tumor weight (est.), dose: 100.0 mg/kg/injection, schedule: Q01DX005 (ip), vehicle: saline, higher = larger tumour); 76 % of control (endpoint: median tumor weight (est.), dose: 100.0 mg/kg/injection, schedule: Q04DX003 (ip), vehicle: saline, higher = larger tumour). Further, the T/C (endpoint: median tumor weight (est.), dose: 200.0 mg/kg/injection, schedule: Q01DX005 (ip), vehicle: saline, higher = larger tumour) is 36 % of control.
As to `CS(=O)(=O)OCCN(CCOS(C)(=O)=O)c1ccc(C=O)cc1`, the T/C reads like this: (endpoint: median tumor weight (est.), dose: 6.25 mg/kg/injection, schedule: Q07DX002 (ip), vehicle: saline with Tween-80, higher = larger tumour) 113 % of control; under setting [4], 29 % of control; under setting [5], 57 % of control; under setting [6], 60 % of control.
As to `Nc1cc2[nH]cnc2c(=O)[nH]1`, the T/C was 66 % of control (endpoint: median tumor weight (est.), dose: 12.5 mg/kg/injection, schedule: Q07DX002 (ip), vehicle: saline, higher = larger tumour); 168 % of control under setting [9]; 113 % of control under setting [11]; 99 % of control under setting [12]; 117 % of control under setting [13].
`CC(=O)[C@]1(O)Cc2c(O)c3c(c(O)c2[C@@H](OC2CC(N)C(O)C(C)O2)C1)C(=O)c1c(O)cccc1C3=O` (stereo partly specified): the T/C is, setting by setting: (endpoint: median survival time, dose: 0.7 mg/kg/injection, schedule: Q07DX003 (iv), vehicle: water, higher = longer survival) 87 % of control; (endpoint: median survival time, dose: 1.7 mg/kg/injection, schedule: Q07DX003 (iv), vehicle: water, higher = longer survival) 107 % of control; (endpoint: median survival time, dose: 2.7 mg/kg/injection, schedule: Q07DX003 (iv), vehicle: water, higher = longer survival) 176 % of control.
